In publication PMC3701070 (PLoS ONE, 2013):
pIC50: −log10 of the molar value.

Experiments:
Assay in all cases: Cell growth assay
Type in all cases: cell-based
Calu-6 = settings: Homo sapiens, 72 h; Calu-6, RAF WT, KRAS(Q61K), 3-day; read-out: gIC50
Method in brief: (§1)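 We assessed proliferation over 72 h using CellTiter-Glo, reading at the start and end. IC50 for growth inhibition (gIC50) was then determined.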

NCI-H82 = settings: Homo sapiens, 72 h; NCI-H82, RAF WT, RAS WT, 3-day; read-out: gIC50
Method in brief: as §1

SW1417 = settings: Homo sapiens, 72 h; SW1417, BRAF(V600E), RAS WT, 3-day; read-out: gIC50
Method in brief: as §1

Calu-3 = settings: Homo sapiens, 72 h; Calu-3, RAF WT, RAS WT, 3-day; read-out: gIC50
Method in brief: as §1

RPMI-8226 = settings: Homo sapiens, 72 h; RPMI-8226, RAF WT, RAS WT, 3-day; read-out: gIC50
Method in brief: as §1

SK-N-AS = settings: Homo sapiens, 72 h, RAF WT, NRAS(Q61K), 3-day, read-out: gIC50
Method in brief: as §1

IGROV1 = settings: Homo sapiens, IGROV-1, 72 h; IGROV1, RAF WT, RAS WT, 3-day; read-out: gIC50
Method in brief: as §1

A172 = settings: Homo sapiens, A 172, 72 h; A172, RAF WT, RAS WT, 3-day; read-out: gIC50
Method in brief: as §1

MiaPaCa = settings: Homo sapiens, MIA PaCa-2, 72 h, RAF WT, RAS WT, 3-day, read-out: gIC50
Method in brief: as §1

NCI-H2122 = settings: Homo sapiens, 72 h; NCI-H2122, RAF WT, RAS WT, 3-day; read-out: gIC50
Method in brief: as §1

SHP-77 = settings: Homo sapiens, SHP77, 72 h; SHP-77, RAF WT, KRAS(G12V), 3-day; read-out: gIC50
Method in brief: as §1

FaDu = settings: Homo sapiens, 72 h, RAF WT, RAS WT, 3-day, read-out: gIC50
Method in brief: as §1

SW-837 = settings: Homo sapiens, SW837, 72 h; SW-837, RAF WT, KRAS(G12C), 3-day; read-out: gIC50
Method in brief: as §1

SK-BR-3 = settings: Homo sapiens, 72 h; SK-BR-3, RAF WT, RAS WT, 3-day; read-out: gIC50
Method in brief: as §1

NCI-H209 = settings: Homo sapiens, 72 h; NCI-H209, RAF WT, RAS WT, 3-day; read-out: gIC50
Method in brief: as §1

HeLa = settings: Homo sapiens, 72 h, RAF WT, RAS WT, 3-day, read-out: gIC50
Method in brief: as §1

GCT = settings: Homo sapiens, 72 h, BRAF(V600E), RAS WT, 3-day, read-out: gIC50
Method in brief: as §1

DOTC 24510 = settings: Homo sapiens, DoTc2-4510, 72 h; DOTC 24510, RAF WT, RAS WT, 3-day; read-out: gIC50
Method in brief: as §1

SW684 = settings: Homo sapiens, 72 h; SW684, RAF WT, RAS WT, 3-day; read-out: gIC50
Method in brief: as §1

NCI-H292 = settings: Homo sapiens, 72 h; NCI-H292, RAF WT, RAS WT, 3-day; read-out: gIC50
Method in brief: as §1

SW480 = settings: Homo sapiens, 72 h; SW480, RAF WT, KRAS(G12V), 3-day; read-out: gIC50
Method in brief: as §1

NCI-H69 = settings: Homo sapiens, 72 h; NCI-H69, RAF WT, RAS WT, 3-day; read-out: gIC50
Method in brief: as §1

C-4 I = settings: Homo sapiens, 72 h, RAF WT, RAS WT, 3-day, read-out: gIC50
Method in brief: as §1

HPAF-II = settings: Homo sapiens, 72 h, RAF WT, RAS WT, 3-day, read-out: gIC50
Method in brief: as §1

NCI-H460 = settings: Homo sapiens, 72 h; NCI-H460, RAF WT, KRAS(Q61H), 3-day; read-out: gIC50
Method in brief: as §1

RD-ES = settings: Homo sapiens, 72 h, RAF WT, RAS WT, 3-day, read-out: gIC50
Method in brief: as §1

Daudi = settings: Homo sapiens, 72 h, RAF WT, RAS WT, 3-day, read-out: gIC50
Method in brief: as §1

Colo704 = settings: Homo sapiens, COLO 704, 72 h; Colo704, RAF WT, RAS WT, 3-day; read-out: gIC50
Method in brief: as §1

DLD-1 = settings: Homo sapiens, 72 h; DLD-1, RAF WT, KRAS(G13D), 3-day; read-out: gIC50
Method in brief: as §1

EB-3 = settings: Homo sapiens, 72 h; EB-3, RAF WT, RAS WT, 3-day; read-out: gIC50
Method in brief: as §1

SK-N-F1 = settings: Homo sapiens, 72 h; SK-N-F1, RAF WT, RAS WT, 3-day; read-out: gIC50
Method in brief: as §1

NCI-H146 = settings: Homo sapiens, 72 h; NCI-H146, RAF WT, RAS WT, 3-day; read-out: gIC50
Method in brief: as §1

## CC(C)(C)c1nc(-c2cccc(NS(=O)(=O)c3c(F)cccc3F)c2F)c(-c2ccnc(N)n2)s1 [dabrafenib]
Calu-6
  pIC50: < 5.00
NCI-H82
  pIC50: < 5.00
SW1417
  pIC50: 6.80
Calu-3
  pIC50: < 5.00
RPMI-8226
  pIC50: 6.58
SK-N-AS
  pIC50: < 5.00
IGROV1
  pIC50: < 5.00
A172
  pIC50: < 5.00
MiaPaCa
  pIC50: < 5.00
NCI-H2122
  pIC50: < 5.00
SHP-77
  pIC50: < 5.00
FaDu
  pIC50: < 5.00
SW-837
  pIC50: < 5.00
SK-BR-3
  pIC50: < 5.00
NCI-H209
  pIC50: < 5.00
HeLa
  pIC50: < 5.00
GCT
  pIC50: < 5.00
DOTC 24510
  pIC50: < 5.00
SW684
  pIC50: < 5.00
NCI-H292
  pIC50: < 5.00
SW480
  pIC50: < 5.00
NCI-H69
  pIC50: < 5.00
C-4 I
  pIC50: < 5.00
HPAF-II
  pIC50: < 5.00
NCI-H460
  pIC50: < 5.00
RD-ES
  pIC50: < 5.00
Daudi
  pIC50: < 5.00
Colo704
  pIC50: < 5.00
DLD-1
  pIC50: < 5.00
EB-3
  pIC50: < 5.00
SK-N-F1
  pIC50: < 5.00
NCI-H146
  pIC50: < 5.00
